Key:
in vitro = conditions: African green monkey; for CC50 at 4 days: uninfected quiescent Vero-B cells
DENV-2 NGC = assay: Antiviral activity against DENV-2 NGC in Vero-B cells (viral RNA load by RT-qPCR); type: cell-based, Dengue virus; conditions: Dengue virus, DENV2, Vero B, DENV-2 in Vero-B cells; inhibition of viral RNA replication by 50% (Table 3)

Row | SMILES | CC50 at 4 days (in vitro) [µM] | EC50 (DENV-2 NGC) [µM] | CC50 (in vitro) [µM]
1 | CCOc1cccc(NC(C(=O)c2c[nH]c3ccccc23)c2ccccc2)c1 (centres unmarked) [CPD-003] | 13 | 0.11 | –
2 | O=C(c1c[nH]c2ccccc12)C(Nc1cccc(Cl)c1)c1ccccc1 (centres unmarked) [CPD-006] | 6 | 0.75 | –
3 | O=C(c1c[nH]c2ccccc12)C(Nc1ccc(F)c(F)c1)c1ccccc1 (centres unmarked) [CPD-007] | 5 | 2.53 | –
4 | O=C(c1c[nH]c2ccccc12)C(Nc1cccc(C(F)(F)F)c1)c1ccccc1 (centres unmarked) [CPD-009] | 4 | 0.66 | –
5 | COc1cc(NC(C(=O)c2c[nH]c3ccccc23)c2ccccc2)cc(C(F)(F)F)c1 (centres unmarked) [CPD-014] | 8 | 0.02 | –
6 | COc1cccc(N(C)C(C(=O)c2c[nH]c3ccccc23)c2ccccc2)c1 (centres unmarked) [CPD-018] | 19 | 0.37 | –
7 | Cc1cc(NC(C(=O)c2c[nH]c3ccccc23)c2ccccc2)no1 (centres unmarked) [CPD-022] | 77 | 12.8 | –
8 | COc1cccc(NC(C(=O)c2c[nH]c3ccccc23)c2cccs2)c1 (centres unmarked) [CPD-024] | 14 | 0.5 | –
9 | COc1cccc(NC(C(=O)c2c[nH]c3ccccc23)c2nccn2C)c1 (centres unmarked) [CPD-026] | > 138 | 17.2 | –
10 | COc1cccc(NC(C(=O)c2c[nH]c3ccccc23)c2ncc[nH]2)c1 (centres unmarked) [CPD-028] | > 144 | 135 | –
11 | O=C(c1c[nH]c2ccccc12)C(Nc1ccnc(O)c1)c1ccccc1 (centres unmarked) [CPD-031] | > 145 | 50.2 | –
12 | O=C(c1c[nH]c2ccccc12)C(NCc1ccccn1)c1ccccc1 (centres unmarked) [CPD-032] | > 146 | 55.5 | –
13 | O=C(c1c[nH]c2ccccc12)C(NCc1cccs1)c1ccccc1 (centres unmarked) [CPD-033] | 71 | 9.15 | –
14 | O=C(c1c[nH]c2ccccc12)C(NCc1ccco1)c1ccccc1 (centres unmarked) [CPD-034] | > 151 | 46.5 | –
15 | COc1cccc(NC(C(=O)c2c[nH]c3ccccc23)c2cccc(C#N)c2)c1 (centres unmarked) [CPD-041] | 14 | 0.5 | –
16 | COc1cccc(NC(C(=O)c2c[nH]c3ccccc23)c2cnn(C)c2)c1 (centres unmarked) [CPD-042] | > 138 | 12.5 | –
17 | CCc1cccc(NC(C(=O)c2c[nH]c3ccccc23)c2ccccc2)c1 (centres unmarked) [CPD-046] | 17 | 0.65 | –
18 | COc1cccc(NC(C(=O)c2c[nH]c3ccccc23)c2cccc3cnccc23)c1 (centres unmarked) [CPD-047] | 16 | 0.42 | –
19 | COc1cccc(NC(C(=O)c2c[nH]c3ccccc23)c2ccc(-c3cncnc3)cc2)c1 (centres unmarked) [CPD-048] | > 115 | 2.09 | –
20 | O=C(c1c[nH]c2ccccc12)C(Nc1ccc2nccnc2c1)c1ccccc1 (centres unmarked) [CPD-050] | 87 | 2.4 | –
21 | CNS(=O)(=O)c1cccc(NC(C(=O)c2c[nH]c3ccccc23)c2ccccc2)c1 (centres unmarked) [CPD-052] | 52 | 3.72 | –
22 | COc1cccc(NC(C(=O)c2c[nH]c3ccccc23)c2cccc(-c3cncnc3)c2)c1 (centres unmarked) [CPD-054] | > 115 | 2.09 | –
23 | O=C(c1c[nH]c2ccccc12)C(Nc1cccc(-n2cncn2)c1)c1ccccc1 (centres unmarked) [CPD-058] | 64 | 2.85 | –
24 | O=C(c1c[nH]c2ccccc12)C(Nc1cccc(-c2cnco2)c1)c1ccccc1 (centres unmarked) [CPD-059] | 16 | 1.25 | –

Row | SMILES | CC50 at 4 days (in vitro) [µM] | EC50 (DENV-2 NGC) [µM] | CC50 (in vitro) [µM]
25 | COc1cccc(NC(C(=O)c2c[nH]c3ccccc23)c2ccc3c(c2)n(C)c(=O)n3C)c1 (centres unmarked) [CPD-060] | > 113 | 10.3 | –
26 | COc1cc(NC(C(=O)c2c[nH]c3ccccc23)c2ccc(C#N)cc2)ccn1 (centres unmarked) [CPD-061] | 59 | 1.71 | –
27 | COc1cc(C)nc(NC(C(=O)c2c[nH]c3ccccc23)c2ccccc2)n1 (centres unmarked) [CPD-062] | > 134 | 0.58 | –
28 | COc1cccc(NC(C(=O)c2c[nH]c3ccccc23)c2ccc(O)nc2)c1 (centres unmarked) [CPD-063] | > 134 | 14.3 | –
29 | COc1cc(NC(C(=O)c2c[nH]c3ccccc23)c2cn3ccccc3n2)ccn1 (centres unmarked) [CPD-064] | 72 | 8.75 | –
30 | NC(=O)c1cccc(NC(C(=O)c2c[nH]c3ccccc23)c2ccccc2)c1 (centres unmarked) [CPD-065] | 90 | 12.1 | –
31 | CCOC(=O)c1cccc(NC(C(=O)c2c[nH]c3ccccc23)c2ccccc2)c1 (centres unmarked) [CPD-068] | 12 | 1.32 | –
32 | COc1cc(NC(C(=O)c2c[nH]c3cc(Cl)ccc23)c2cn3ccccc3n2)ccn1 (centres unmarked) [CPD-069] | 71 | 2.13 | –
33 | O=C(O)c1cccc(NC(C(=O)c2c[nH]c3ccccc23)c2ccccc2)c1 (centres unmarked) [CPD-071] | 135 | 60.9 | –
34 | COc1cc(NC(C(=O)c2c[nH]c3ccccc23)c2ccccc2)ncn1 (centres unmarked) [CPD-072] | 68 | 6.84 | –
35 | COc1cc(NC(C(=O)c2c[nH]c3cc(Cl)ccc23)c2ccccc2)ccn1 (centres unmarked) [CPD-073] | 76 | 2.35 | –
36 | COc1cc(NC(C(=O)c2c[nH]c3ccccc23)c2cccnc2)ccn1 (centres unmarked) [CPD-074] | 77 | 0.81 | –
37 | COc1cc(NC(C(=O)c2c[nH]c3cc(F)ccc23)c2ccccc2)ccn1 (centres unmarked) [CPD-075] | 102 | 1.52 | –
38 | COc1ccc2c(C(=O)C(Nc3ccnc(OC)c3)c3ccccc3)c[nH]c2c1 (centres unmarked) [CPD-076] | 115 | 3.77 | –
39 | COc1ccc2[nH]cc(C(=O)C(Nc3ccnc(OC)c3)c3ccccc3)c2c1 (centres unmarked) [CPD-078] | 109 | 11.6 | –
40 | COc1cccc(NC(C(=O)c2c[nH]c3ccccc23)c2cn3c(n2)COCC3)c1 (centres unmarked) [CPD-080] | > 124 | 0.99 | –
41 | COc1cc(NC(C(=O)c2c[nH]c3ccccc23)c2cn3c(F)cccc3n2)ccn1 (centres unmarked) [CPD-081] | 50 | 10.8 | –
42 | COc1cc(NC(C(=O)c2c[nH]c3ccccc23)c2cscn2)ccn1 (centres unmarked) [CPD-082] | 109 | 61.9 | –
43 | COC(=O)c1ccc2c(C(=O)C(Nc3cccc(OC)c3)c3ccccc3)c[nH]c2c1 (centres unmarked) [CPD-085] | 16 | 0.07 | –
44 | COc1cccc(NC(C(=O)c2c[nH]c3ccccc23)c2cn3cccc(C)c3n2)c1 (centres unmarked) [CPD-088] | > 121 | 2.53 | –
45 | COc1ccnc(NC(C(=O)c2c[nH]c3ccccc23)c2ccccc2)n1 (centres unmarked) [CPD-089] | > 139 | 0.67 | –
46 | COc1cc(NC(C(=O)c2c[nH]c3ccccc23)c2ccc(F)cc2)ccn1 (centres unmarked) [CPD-090] | 13 | 2.9 | –
47 | COc1cc(NC(C(=O)c2c[nH]c3cc(C#N)ccc23)c2ccccc2)ccn1 (centres unmarked) [CPD-093] | 87 | 16.8 | –
48 | COc1cccc(NC(C(=O)c2c[nH]c3cc(C#N)ccc23)c2ccccc2)c1 (centres unmarked) [CPD-094] | 11 | 0.14 | –

Row | SMILES | CC50 at 4 days (in vitro) [µM] | EC50 (DENV-2 NGC) [µM] | CC50 (in vitro) [µM]
49 | COc1cccc(NC(C(=O)c2c[nH]c3ccccc23)c2cn3ccc(C)cc3n2)c1 (centres unmarked) [CPD-096] | > 121 | 2.9 | –
50 | COc1cc(NC(C(=O)c2c[nH]c3ccccc23)c2ccc3[nH]ccc3c2)ccn1 (centres unmarked) [CPD-097] | 12 | 2.32 | –
51 | COc1cccc(NC(C(=O)c2c[nH]c3ccccc23)c2cn3cc(C)ccc3n2)c1 (centres unmarked) [CPD-098] | > 121 | 10.7 | –
52 | COc1cc(NC(C(=O)c2c[nH]c3ccc(Cl)cc23)c2ccccc2)ccn1 (centres unmarked) [CPD-099] | 12 | 1.76 | –
53 | COc1cc(NC(C(=O)c2cn(C)c3ccccc23)c2ccccc2)ccn1 (centres unmarked) [CPD-100] | 42 | 12 | –
54 | COc1cc(NC(C(=O)c2c[nH]c3c(Cl)cccc23)c2ccccc2)ccn1 (centres unmarked) [CPD-101] | 11 | 4.9 | –
55 | COc1cccc(NC(C(=O)c2c[nH]c3ccccc23)c2cc(C)no2)c1 (centres unmarked) [CPD-102] | 65 | 0.62 | –
56 | COc1cccc(NC(C(=O)c2cn(CCN)c3ccccc23)c2ccccc2)c1 (centres unmarked) [CPD-105] | – | 1.23 | 14
57 | COc1cccc(NC(C(=O)c2cn(CC(=O)O)c3ccccc23)c2ccccc2)c1 (centres unmarked) [CPD-106] | – | 8.93 | > 120
58 | CCn1nccc1C(Nc1cccc(OC)c1)C(=O)c1c[nH]c2ccccc12 (centres unmarked) [CPD-107] | 20 | 7.88 | –
59 | COc1cccc(NC(C(=O)c2c[nH]c3ccccc23)c2cn3c(F)cccc3n2)c1 (centres unmarked) [CPD-109] | 84 | 0.53 | –
60 | COc1cccc(NC(C(=O)c2c[nH]c3ccccc23)c2cn3cc(F)ccc3n2)c1 (centres unmarked) [CPD-110] | 73 | 0.58 | –
61 | COc1cccc(NC(C(=O)c2cn(S(C)(=O)=O)c3ccccc23)c2ccccc2)c1 (centres unmarked) [CPD-111] | > 115 | 0.44 | –
62 | COc1cccc(NC(C(=O)c2c[nH]c3ccccc23)c2ccc(COCN(C)C)cc2)c1 (centres unmarked) [CPD-112] | 12 | 3.27 | –
63 | CCOC(=O)Cn1cc(C(=O)C(Nc2cccc(OC)c2)c2ccccc2)c2ccccc21 (centres unmarked) [CPD-113] | – | 0.49 | > 112
64 | COc1cccc(NC(C(=O)c2cn(CCN(C)C)c3ccccc23)c2ccccc2)c1 (centres unmarked) [CPD-114] | – | 1.1 | 52
65 | COc1cccc(N2C(=O)CN(C)n3cc(c4ccccc43)C(=O)C2c2ccccc2)c1 (centres unmarked) [CPD-115] | 49 | 10.6 | –
66 | COc1cccc(NC(C(=O)c2cn(C)c3ccccc23)c2cc(C)on2)c1 (centres unmarked) [CPD-117] | > 133 | 3.57 | –
67 | COc1cc(NC(C(=O)c2cn(S(C)(=O)=O)c3ccccc23)c2ccccc2)ccn1 (centres unmarked) [CPD-121] | 60 | 5.76 | –
68 | COc1cccc(NC(C(=O)c2c[nH]c3ccccc23)c2ccc(CN(C)C)cc2)c1 (centres unmarked) [CPD-124] | 3 | 0.56 | –
69 | COc1cccc(NC(C(=O)c2c[nH]c3ccccc23)c2[nH]cnc2C)c1 (centres unmarked) [CPD-125] | > 138 | 7.19 | –
70 | COc1cccc(NC(C(=O)c2c[nH]c3ccccc23)c2ccc(CO)cc2)c1 (centres unmarked) [CPD-127] | 72 | 2.15 | –
